Data set [1] addresses T1, von Hippel-Lindau disease tumor suppressor/Receptor-type tyrosine-protein kinase FLT3 (Homo sapiens) (UniProt P36888+P40337). Kind of data set: PROTAC activity at VHL/FLT-3 in human HL-60 cells assessed as reduction in FLT-3 protein level at 1 uM incubated for 1 hrs by Western blot analysis. The class given is cell-based.
Data set [2] has as its system HL-60. Kind of data set: Antiproliferative activity against human HL-60 cells assessed as inhibition of cell growth incubated for 48 hrs by CCK-8 assay. The class given is functional, cell-based. The note with it: HL-60, 48 h. Background: Tetrazolium dyes change colour on reduction, which living cells bring about.
In data set [3] the test system is K562. Kind of data set: Antiproliferative activity against human K562 cells assessed as inhibition of cell growth incubated for 48 hrs by CCK-8 assay. The class given is functional, cell-based. The note with it: K562, 48 h.
For data set [4], the system named is A498. As to the kind of experiment: Antiproliferative activity against human A498 cells assessed as inhibition of cell growth incubated for 48 hrs by CCK-8 assay. The class given is functional, cell-based. The note with it: A498, 48 h.
The subject of data set [5] is HL-60. As to the kind of experiment: Antiproliferative activity against human HL-60 cells assessed as reduction in cell viability at 20 uM incubated for 24 hrs by CCK-8 assay. Type of data set: functional, cell-based.
Data set [6] relates to K562. As to the kind of experiment: Antiproliferative activity against human K562 cells assessed as reduction in cell viability at 20 uM incubated for 24 hrs by CCK-8 assay. Type of data set: functional, cell-based.
Data set [7] concerns A498. Kind of data set: Antiproliferative activity against human A498 cells assessed as reduction in cell viability at 20 uM incubated for 24 hrs by CCK-8 assay. Type of data set: functional, cell-based.
The nature of data set [8]: Cytotoxicity against human NCM460 cells assessed as inhibition of cell growth. The class given is toxicity, cell-based.
The target in data set [9] is T1, von Hippel-Lindau disease tumor suppressor/Receptor-type tyrosine-protein kinase FLT3 (Homo sapiens). Kind of data set: PROTAC activity at VHL/FLT-3 in human HL-60 cells assessed as reduction in FLT-3 protein level at 10 to 20 uM incubated for 48 hrs by Western blot analysis. The class given is cell-based. The note with it: dose 10-20 µM.
The target is the same in data set [10]. Kind of data set: PROTAC activity at VHL/FLT-3 in human HL-60 cells assessed as reduction in FLT-3 protein level at 10 uM incubated for 12 hrs by Western blot analysis. Type of data set: cell-based. On the technique in general: A western blot detects proteins with antibodies after separation by electrophoresis.
For data set [11] the target is unchanged. Kind of data set: PROTAC activity at VHL/FLT-3 in human HL-60 cells assessed as reduction in FLT-3 protein level at 10 uM by Western blot analysis. The class given is cell-based. The note with it: time 4-48 hrs, TDE = time-dependent effect.
Data set [12] has as its target T2, von Hippel-Lindau disease tumor suppressor/Mast/stem cell growth factor receptor Kit (Homo sapiens) (UniProt P10721+P40337). As to the kind of experiment: PROTAC activity at VHL/c-KIT in human HL-60 cells assessed as reduction in c-KIT protein level at >10 uM measured at 24 to 48 hrs by Western blot analysis. The class given is cell-based. The note with it: time 24-48 hrs.

Data set [13] concerns the target T1, von Hippel-Lindau disease tumor suppressor/Receptor-type tyrosine-protein kinase FLT3 (Homo sapiens). Kind of data set: PROTAC activity at VHL/FLT-3 in human K562 cells assessed as reduction in FLT-3 protein level at 20 uM incubated for 48 hrs by Western blot analysis. The class given is cell-based.
For data set [14] the target is unchanged. Kind of data set: PROTAC activity at VHL/FLT-3 in human HL-60 cells assessed as reduction in FLT-3 protein level at 20 uM incubated for 24 hrs by Western blot analysis. The class given is cell-based.
Data set [15] shares this target. Kind of data set: PROTAC activity at VHL/FLT-3 in human HL-60 cells assessed as reduction in FLT-3 protein level at 20 uM preincubated with MG-132 for 1 hrs followed by compound addition and measured after for 48 hrs by Western blot analysis. The class given is cell-based.
The target of data set [16] is T2, von Hippel-Lindau disease tumor suppressor/Mast/stem cell growth factor receptor Kit (Homo sapiens). Kind of data set: PROTAC activity at VHL/c-KIT in human HL-60 cells assessed as reduction in c-KIT protein level at 20 uM preincubated with VHL032 for 1 hrs followed by compound addition and measured after for 48 hrs by Western blot analysis. Type of data set: cell-based.

The source made the active and inactive calls. The rule behind the calls is not given here. Residues, ends and D or L forms follow the SMILES beside them. *: point of attachment. Cbz = O=C(OCc1ccccc1)*

T1 sequence (P36888 27-993 limits assumed): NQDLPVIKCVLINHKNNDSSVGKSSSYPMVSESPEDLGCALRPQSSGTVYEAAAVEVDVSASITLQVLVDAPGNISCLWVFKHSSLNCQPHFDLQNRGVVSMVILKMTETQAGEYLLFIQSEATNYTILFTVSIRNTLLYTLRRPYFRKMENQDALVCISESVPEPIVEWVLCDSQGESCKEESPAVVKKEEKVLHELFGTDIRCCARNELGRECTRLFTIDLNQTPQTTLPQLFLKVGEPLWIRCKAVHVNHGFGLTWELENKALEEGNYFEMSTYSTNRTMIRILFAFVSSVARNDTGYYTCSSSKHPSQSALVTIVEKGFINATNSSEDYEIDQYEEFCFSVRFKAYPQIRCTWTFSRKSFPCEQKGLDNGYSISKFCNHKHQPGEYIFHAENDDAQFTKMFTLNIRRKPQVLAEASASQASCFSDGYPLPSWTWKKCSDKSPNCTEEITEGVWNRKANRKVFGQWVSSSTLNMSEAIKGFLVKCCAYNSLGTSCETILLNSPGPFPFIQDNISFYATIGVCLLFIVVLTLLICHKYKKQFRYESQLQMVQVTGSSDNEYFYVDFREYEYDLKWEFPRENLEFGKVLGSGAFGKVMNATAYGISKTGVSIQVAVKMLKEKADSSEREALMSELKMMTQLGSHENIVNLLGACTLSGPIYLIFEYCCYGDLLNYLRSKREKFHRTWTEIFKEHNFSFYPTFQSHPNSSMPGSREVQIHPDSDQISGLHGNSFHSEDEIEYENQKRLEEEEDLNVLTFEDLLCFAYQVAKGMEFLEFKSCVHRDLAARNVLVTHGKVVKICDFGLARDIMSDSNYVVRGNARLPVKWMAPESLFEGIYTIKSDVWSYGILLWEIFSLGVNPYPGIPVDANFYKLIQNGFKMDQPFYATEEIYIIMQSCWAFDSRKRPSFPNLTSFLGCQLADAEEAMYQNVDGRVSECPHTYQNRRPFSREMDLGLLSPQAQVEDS
T1 sequence (P40337 whole entry partner): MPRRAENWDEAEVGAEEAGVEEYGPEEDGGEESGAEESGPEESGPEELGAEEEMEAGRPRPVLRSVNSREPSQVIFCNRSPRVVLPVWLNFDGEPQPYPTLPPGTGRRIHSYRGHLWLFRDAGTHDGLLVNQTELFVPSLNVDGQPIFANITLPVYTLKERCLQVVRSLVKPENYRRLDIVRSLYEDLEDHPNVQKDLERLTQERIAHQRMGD
T2 sequence (P10721 whole entry, looked up): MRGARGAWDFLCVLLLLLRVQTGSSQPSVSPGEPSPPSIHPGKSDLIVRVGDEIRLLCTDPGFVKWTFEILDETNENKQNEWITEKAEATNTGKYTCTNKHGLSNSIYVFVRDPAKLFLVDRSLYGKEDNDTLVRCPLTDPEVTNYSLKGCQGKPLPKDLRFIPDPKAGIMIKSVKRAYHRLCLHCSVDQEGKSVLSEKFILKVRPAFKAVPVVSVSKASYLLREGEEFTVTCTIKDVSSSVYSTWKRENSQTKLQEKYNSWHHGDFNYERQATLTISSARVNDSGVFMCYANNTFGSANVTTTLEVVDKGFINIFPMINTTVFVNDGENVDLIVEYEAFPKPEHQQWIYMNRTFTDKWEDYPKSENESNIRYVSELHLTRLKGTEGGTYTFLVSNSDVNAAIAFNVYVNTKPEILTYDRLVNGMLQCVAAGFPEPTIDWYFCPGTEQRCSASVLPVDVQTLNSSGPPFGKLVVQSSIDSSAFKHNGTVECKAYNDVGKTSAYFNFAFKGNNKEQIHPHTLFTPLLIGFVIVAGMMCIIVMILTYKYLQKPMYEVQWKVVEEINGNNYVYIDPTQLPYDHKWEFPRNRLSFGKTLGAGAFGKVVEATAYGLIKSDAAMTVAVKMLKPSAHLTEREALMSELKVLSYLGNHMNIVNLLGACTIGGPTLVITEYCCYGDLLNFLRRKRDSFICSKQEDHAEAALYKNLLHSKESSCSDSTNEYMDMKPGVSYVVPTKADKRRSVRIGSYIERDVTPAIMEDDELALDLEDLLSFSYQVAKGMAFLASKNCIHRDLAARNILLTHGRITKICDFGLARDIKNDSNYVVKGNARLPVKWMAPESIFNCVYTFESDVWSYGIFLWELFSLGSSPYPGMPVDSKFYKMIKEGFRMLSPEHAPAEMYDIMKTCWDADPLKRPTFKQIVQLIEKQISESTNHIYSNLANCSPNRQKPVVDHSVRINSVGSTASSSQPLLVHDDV
T2 sequence (P40337 whole entry, looked up): as the sequence (P40337 whole entry partner) above

Turning to `CC(C)C[C@@H](C=O)NC(=O)[C@H](CC(C)C)NC(=O)[C@H](CC(C)C)NC(=O)OCc1ccccc1` (Cbz-Leu-Leu-Leu-aldehyde), the result in [1] was Active.
As for `CCN(CC)CCNC(=O)c1c(C)[nH]c(/C=C2\C(=O)Nc3ccc(F)cc32)c1C` [SUNITINIB], the IC50 (as a rule, the point on the concentration scale where inhibition reaches its midpoint) in the data set with HL-60 [2] stood at 8.7 µM; in the data set on K562 [3], 5.8 µM; in the data set with A498 [4], 1.2 µM.
The corresponding values for `Cc1ncsc1-c1ccc(CNC(=O)[C@@H]2C[C@@H](O)CN2C(=O)[C@@H](NC(=O)COCCOCCOCCNC(=O)c2c(C)[nH]c(/C=C3\C(=O)Nc4ccc(F)cc43)c2C)C(C)(C)C)cc1` are 12.7 µM, 15.2 µM and 18.1 µM.
Consider `Cc1ncsc1-c1ccc(CNC(=O)[C@@H]2C[C@@H](O)CN2C(=O)[C@@H](NC(=O)COCCOCCNC(=O)c2c(C)[nH]c(/C=C3\C(=O)Nc4ccc(F)cc43)c2C)C(C)(C)C)cc1`, for which the outcome (with HL-60 [5]; in the data set on K562 [6]; with A498 [7]; in [9]; in data set [10]; in [12]) was Active. The result in data set [13], in [14], in [15] and in data set [16] was Active. Also, the IC50 with HL-60 [2] was 2.9 µM; with K562 [3] it was 11.6 µM; in the data set on A498 [4], 13.1 µM; in [8], greater than 100 µM. For the same compound, in [11], the Activity result is “Tde”.
Turning to `CCN(CCNC(=O)c1c(C)[nH]c(/C=C2\C(=O)Nc3ccc(F)cc32)c1C)CC(=O)N[C@H](C(=O)N1C[C@H](O)C[C@H]1C(=O)NCc1ccc(-c2scnc2C)cc1)C(C)(C)C`, the outcome (in the data set on HL-60 [5]; in the data set with K562 [6]; with A498 [7]; in data set [13]) was Active. Also, the IC50 in the data set with HL-60 [2] was 36.5 µM; in the data set with K562 [3], 8.4 µM; in the data set with A498 [4], 26.5 µM; in data set [8] it was greater than 100 µM.

For the origin of these results see ChEMBL document CHEMBL5150032, “Sunitinib-based Proteolysis Targeting Chimeras (PROTACs) reduced the protein levels of FLT-3 and c-KIT in leukemia cell lines” (Bioorg Med Chem Lett, 2022).
